The values below come from patent US20100143456A1, “MODEL MEMBRANE SYSTEMS” (priority 1999, published 2010).

SMILES strings stand for the structures.

The assay concerns P815 cells. The assay is described as follows: FACS analysis of hexa-histidine-tagged B7.1 and CD40 engrafted onto P815 cells via incorporated lipid. The note with it: 0.1 mM lipid 30 min 37° C., then 6His B7.1 and CD40 each ~20 μg/ml, streptavidin-FITC. Type of assay: cell-based, murine. As to the method:
FIG. 2 is the fluorescence profile, as measured by fluorescence-activated cell sorting, of p815 cells engrafted with biotinylated and hexa-histidine-tagged CD40 and B7.1 molecules and then stained with streptavidin-FITC.
Cultured P815 tumor cells were washed twice in PBS to remove proteins from the culture media and suspended to 1×10^7 cells/ml in PBS. The cells were then aliquoted into 96-well V-bottom Seroeluster plates (Costar, Corning, N.Y.) at […] and incubated with 125 μM NTA-DTDA (alone or as a mixture with other lipids as indicated) or 125 μM DMPC (control) in PBS containing 125 μM Zn^2+, for 40 min at 37° C. […] The relative level of NTA-DTDA incorporated was routinely assessed by FACS analysis (see below) after incubating the cells with biotinylated 6His peptide (B-6His) (0.2 μg/ml) for 30 min at 4° C., washing twice with PBS-0.1% v/v BSA, and then staining with streptavidin-FITC. The cells were incubated with streptavidin-FITC (33 μg/ml) in PBS containing 1% v/v BSA (PBS-1% v/v-BSA) for 30 min at 4° C., washed three times with PBS-1% v/v BSA, fixed with 2% v/v paraformaldehyde in PBS, and then analyzed for FITC-fluorescence by FACS. […]
The histograms in FIG. 2 show fluorescence-activated cell sorting (FACS) profiles of murine mastocytoma P815 cells carrying engrafted recombinant hexa-histidine-tagged murine B7.1 and CD40. […]

In the case of `CCCCCCCCCCCCCCN(CCCCCCCCCCCCCC)C(=O)CCC(=O)NCCCC[C@@H](C(=O)O)N(CC(=O)O)CC(=O)O` [NTA-DTDA, N^α,N^αbis[carboxymethyl]-N^ε[(DTDA)suc]-L lysine], the “fluorescence of P815 cells relative to cells pre-incubated with DMPC (Control)” value (biotinylated anti-B7.1 or anti-CD40 mAb) is on record as 10-100 fold.
In the case of `CCCCCCCCCCCCCC(=O)OC[C@H](COP(=O)([O-])OCC[N+](C)(C)C)OC(=O)CCCCCCCCCCCCC` [DMPC, di-myristoyl-phosphatidylcholine], the “level of fluorescence after staining with either monoclonal antibody” value (biotinylated mAb) is reported as “low level of fluorescence”.
